In PMC4848594 (Viruses, 2016):

How the values were obtained:
[1] = biological target: T1, RHDV RdRp (Rabbit hemorrhagic disease virus-V351, UniProt P27411); assay: PicoGreen dsRNA de novo polymerase assay; format: biochemical
T1 construct: gene ORF1

[2] = biological target: RCV RdRp; assay: PicoGreen dsRNA de novo polymerase assay; format: biochemical, Rabbit calicivirus Australia 1 (Lagovirus europaeus GI.4); conditions: 45 μM rGTP, 10 ng/μL poly(C), 2.5 mM MnCl2, pH 7.5, 30 °C, 10 min preincubation; non-nucleoside inhibitor
[3] = tested on: Nc1nc2c(ncn2[C@@H]2O[C@H](COP(=O)(O)OP(=O)(O)OP(=O)(O)O)[C@@H](O)[C@H]2O)c(=O)[nH]1; assay: purified protein; conditions: 20 ng/μL poly(C), 2.5 mM MnCl2, 5 mM DTT, pH 7.5, 30 °C, Michaelis-Menten fit
[4] = tested on: NoV RdRp; assay: PicoGreen dsRNA assay, substrate inhibition model; format: biochemical, Norovirus GII.4 (Norwalk virus, Norovirus norwalkense); conditions: substrate inhibition constant; rGTP 0–2.0 mM, 20 ng/μL poly(C), 2.5 mM MnCl2, pH 7.5, 30 °C
[5] = tested on: RCV RdRp; assay: PicoGreen dsRNA assay, substrate inhibition model; format: biochemical, Rabbit calicivirus Australia 1 (Lagovirus europaeus GI.4); conditions: substrate inhibition constant; rGTP 0–2.0 mM, 20 ng/μL poly(C), 2.5 mM MnCl2, pH 7.5, 30 °C
[6] = tested on: RCV RdRp; assay: PicoGreen dsRNA assay, Michaelis-Menten model; format: biochemical, Rabbit calicivirus Australia 1 (Lagovirus europaeus GI.4); conditions: 20 ng/μL poly(C), 2.5 mM MnCl2, 5 mM DTT, pH 7.5, 30 °C; Michaelis-Menten fit
[7] = biological target: T1, RHDV RdRp; assay: PicoGreen dsRNA assay, substrate inhibition model; format: biochemical; conditions: substrate inhibition constant; rGTP 0–2.0 mM, 20 ng/μL poly(C), 2.5 mM MnCl2, pH 7.5, 30 °C
[8] = tested on: NoV RdRp; assay: PicoGreen dsRNA assay, Michaelis-Menten model; format: biochemical, Norovirus GII.4 (Norwalk virus, Norovirus norwalkense); conditions: 20 ng/μL poly(C), 2.5 mM MnCl2, 5 mM DTT, pH 7.5, 30 °C; Michaelis-Menten fit

T1 sequence (P27411 1252-1767): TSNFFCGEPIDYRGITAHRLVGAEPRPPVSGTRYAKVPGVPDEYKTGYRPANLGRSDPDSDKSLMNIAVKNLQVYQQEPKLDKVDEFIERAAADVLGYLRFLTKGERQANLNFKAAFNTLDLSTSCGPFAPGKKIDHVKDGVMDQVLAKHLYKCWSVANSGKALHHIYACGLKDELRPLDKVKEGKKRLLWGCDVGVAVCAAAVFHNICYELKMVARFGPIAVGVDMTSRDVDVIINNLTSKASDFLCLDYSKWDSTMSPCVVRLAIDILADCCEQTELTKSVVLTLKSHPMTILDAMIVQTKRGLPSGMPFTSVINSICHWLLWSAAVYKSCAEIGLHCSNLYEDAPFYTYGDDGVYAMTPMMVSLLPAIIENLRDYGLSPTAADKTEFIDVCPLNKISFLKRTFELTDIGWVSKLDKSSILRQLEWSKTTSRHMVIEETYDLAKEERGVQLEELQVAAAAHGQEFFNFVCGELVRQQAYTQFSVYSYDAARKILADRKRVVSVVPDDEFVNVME

## Cc1nc(-c2ccccc2)sc1C(=O)Nc1sc2c(c1C#N)CCC2 [NIC02]
[1]
  IC50: 19.9 µM
[2]
  IC50: 13.5 µM

## RHDV RdRp (Rabbit hemorrhagic disease virus-V351)
[3]
  Km: 14.6 ± 2.4 µM

## Nc1nc2c(ncn2[C@@H]2O[C@H](COP(=O)(O)OP(=O)(O)OP(=O)(O)O)[C@@H](O)[C@H]2O)c(=O)[nH]1 [rGTP]
[4]
  NoV RdRp: 0.6 ± 0.2 mM
[5]
  RCV RdRp: 1.7 ± 0.2 mM
[6]
  Km: 5.7 ± 0.7 µM
[7]
  RHDV RdRp: 2.1 ± 0.4 mM
[8]
  Km: 77.7 ± 14.5 µM
